The record followed here is US20200400567A1, “FUSION POLYPEPTIDE” (PEKING UNIVERSITY, priority 2017, published 2020).

In one assay the test system is human DRD2 receptor. The assay is described as follows: GRAB-GDA3.0 fluorescence response in HEK293T cells, drug perfusion. The class given is cell-based. An excerpt: There are 5 subtypes of human dopamine receptors in the body, which are named DRD1-DRD5. For constructing a fluorescent sensor, the receptors were screened preliminarily by inserting a fluorescent protein at any position in the third intracellular loop of the receptor. […] Specifically, for the third intracellular loop of the human DRD2 receptor, the insertion sites were set every 15 amino acids. Human DRD2 receptors inserted with circular permutated fluorescent proteins at different positions were expressed in HEK293T cells, and drug perfusion experiments were conducted with dopamine. […] After the positions sensitive to conformational change were determined, the surrounding amino acid sites thereof were further screened. The sites surrounding the amino acid position 252 at N-terminus and the sites surrounding the amino acid position 357 at the C-terminus were combined and different sensors were constructed. The sensors were expressed in HEK293T cells and subjected to drug perfusion experiments with dopamine. […] The peptide linkers were GG at the N-terminus and GGAAA at the C-terminus.

Assay [1] deals with GRAB-GDA3.0 signal in mushroom body (MB). The assay can be described thus: Odor-stimulated GRAB-GDA3.0 signal in mushroom body, in vivo two-photon imaging. Also on record: species or system Drosophila. The following applies: for effect on odor (IA)-stimulated GDA signal in MB β' lobe: 10 μM antagonist in imaging solution, n=6. The protocol:
Drosophila were kept in a 25-degree incubator with a standard medium. […] The adult Drosophila to be tested were transferred to a new culture tube within 0-2 days after emergence, and left at room temperature for 8-12 days. Before the imaging, the Drosophila were first fixed in a small dish, and then the square skull part near the eye was surgically removed to expose part of the brain. The adipose tissue and air sacs near the antennal lobes to be imaged were surgically removed to prevent interference with the fluorescent signal. In order to further reduce the degradation of image quality caused by the movement of Drosophila during the imaging, surgical forceps were used to cut the muscles underneath its halter. Throughout the dissection and imaging procedures, the brain of Drosophila was kept in a pre-chilled physiological solution, and the formula thereof is as follows: […]
Drosophila imaging was performed using an Olympus two-photon microscope, including Olympus BX61 WI microscope, 25×NA: 1.05 water lens, and Ti:Sapphire laser mode-locked laser for two-photon excitation. For GRAB sensor imaging experiments, the wavelength of the […] was set to 950 nm in order to successfully excite the fluorescent protein to produce fluorescence. The odor molecule isoamyl acetate (IA) used for stimulating Drosophila was purchased from Sigma, and was diluted in mineral oil at a ratio of 1:100. In the experiment, the isoamyl acetate was further diluted 5-40 times by mixing with air. The air mixed with odor molecules was provided at a position about 1 cm away from the tentacles of the Drosophila through a cavity about 1 cm wide on the experimental table. The odor molecule of different concentrations was tested by controlling the airflow. Each imaging cycle was 17.8 seconds, of which 5 to 10 seconds was the time for providing specific odor molecules. After the imaging experiment for odor function, the imaging area was scanned layer by layer with high resolution setting to obtain the distribution information of the olfactory bulb, which was later identified based on the information of olfactory bulb distribution at the antennal lobe reported in the literature.
The transgenic Drosophila UAS-GRAB-GDA3.0 was constructed to express the GRAB-GDA3.0 sensor in specific cells, driven by the corresponding GAL4 strain. First, GRAB-GDA3.0 was expressed in dopaminergic neurons (DAN) in all Drosophila, and the response induced by odor (isoamyl acetate) was examined by in vivo two-photon imaging (FIG. 39A).
A pharmacological study was performed on GRAB-GDA3.0.
The rate of GDA signal attenuation between normal Drosophila and Drosophila with reduced DAT expression was compared (this is the experiment of gene level research using DAT-RNAi described later). In DAN, the dopamine transporter (DAT) is located in the presynaptic membrane and […] DA intermittently and cyclically from the synapse. DAT-RNAi was used to inhibit DAT expression in DAN (FIG. 40G).

Assay [2] deals with human β2 adrenergic receptor. The assay is described as follows: GRAB-EPI sensor fluorescence response (ΔF/F0) to ISO, drug perfusion in HEK293T cells. Particulars: GRAB-EPI 1.0 in cells, blocking agent mixed with ISO. In kind it is cell-based. How it is done: (§1) After DNA encoding specific GRAB sensor was introduced into cells by transfection, fluorescence imaging combined with perfusion experiment was. The imaging capture of HEK293T cells was performed using an Olympus IX81 inverted microscope, 40×NA: 1.35 oil lens, 475/28 excitation light filter, and 515LP emission light filter. The optical signal was collected by a Zyla sCMOS DG-152V-Cle FI camera (Andor), and Lambda DG-4 from Sutter Instuments company was used as a fluorescent light source. The exposure time was set to less than 50 ms and the acquisition frequency was 5 seconds. The entire imaging system was overall controlled by micromanager software.
The detection of the response of the GRAB sensor to the ligand (ΔF/F0) was performed using a drug perfusion method. […]
Fluorescence imaging data was processed using ImageJ software. For the performance of GRAB sensors in HEK293T cells and neurons, the fluorescence of entire cell body was selected as the data processing region. For living Drosophila imaging, fluorescence images on the same Z axis were analyzed by ImageJ software. The change in the fluorescence signal was indicated by its relative difference. The signal of background area without the expression of the sensor was first subtracted from the fluorescence signal, so as to obtain the real expression of the intensity of the fluorescent protein. […]

Assay [3] deals with human acetylcholine receptor M3R subtype. The assay can be described thus: GRAB-ACh 1.0 in acute mouse hippocampus brain slices, local perfusion, two-photon imaging. Particulars: GRAB-ACh 1.0 expressing cells in brain slices. In kind it is cell-based, mice. The source says:
The DNA encoding GRAB-ACh 1.0 sensor was packed in lentivirus and expressed in the hippocampal neurons of mice, and its fluorescence performance was detected by local perfusion of acetylcholine.

Assay [4] shares this test system. The assay is described as follows: GRAB-ACh sensor fluorescence response to ACh, drug perfusion in HEK293T cells. The class given is cell-based. Particulars: GRAB-ACh 1.0 in cells, blocking agent mixed with ACh. How it is done: as §1
The detection of the response of the GRAB sensor to the ligand (ΔF/F0) was performed using a drug perfusion method. The cells were placed in a standard physiological solution, and the formula thereof is: […]
The pH of the physiological solution was adjusted to about 7.4, and the small molecule drug was diluted with a part of the physiological solution to formulate solutions of respective concentrations of the small molecule ligand. […] Unless explicitly specified, the concentration of isoproterenol (ISO) for perfusion was 2 μM, and the concentration of acetylcholine for perfusion was 100 μM.
The perfusion system was equipped on a microscope, including a solution-introduced system made of syringe for injection, a multi-way valve, an imaging workbench and a suction pump. During the perfusion process, the imaging workbench was placed above the objective lens of the inverted microscope, and then the slide on which cell plated were placed in the workbench. Perfusion of different drugs were performed by controlling the switches of different pipes. In order to control the level of the solution in the workbench, the perfusion speed was set to one drop or so per second. After each drug treatment, the cells were washed with a physiological solution for more than five minutes to ensure that there were no residual drugs that will affect subsequent experiments. After the end of each experiment, the perfusion pipe and the workbench were cleaned with 75% ethanol three times to ensure that the residual drugs and impurities were fully washed away.
Fluorescence imaging data was processed using ImageJ software. For the performance of GRAB sensors in HEK293T cells and neurons, the fluorescence of entire cell body was selected as the data processing region. For living Drosophila imaging, fluorescence images on the same Z axis were analyzed by ImageJ software. The change in the fluorescence signal was indicated by its relative difference. The signal of background area without the expression of the sensor was first subtracted from the fluorescence signal, so as to obtain the real expression of the intensity of the fluorescent protein. Then, by calculating the fluorescence value F after adding the drug and the average fluorescence value F0 before adding, the relative fluorescence change ΔF/F=(F−F0)/F0 was obtained as the fluorescence response of the sensor to a specific drug. The change of ΔF/F0 with time was further plotted by Origin 8.6 software.
Based on GRAB-ACh 1.0, this peptide linker was optimized. First, based on a flexible amino acid (glycine, alanine), the peptide segment was screened for optimal length. The specific strategy was to change the length of the peptide linkers at the N-terminus and C-terminus from 0 to 5 amino acids, respectively, and to randomly combine the N-terminus with C-terminus to obtain all possible permutations. Fusion protein expression vectors containing various arrangements were expressed in HEK293T cells and subjected to perfusion experiments.

In assay [5] the test system is Gαq-mediated signal transduction pathway. The assay can be described thus: TGFα release in Gαq stable cell lines. In kind it is cell-based. The source says:
The coupling of GRAB-ACh4.0 and downstream Gαq was detected. First, three stable cell lines were constructed based on the Gαq cell line: M3R (marked as CHRM3 in FIG. 51), GRAB-ACh4.0, and blank (marked as Gq in FIG. 51) cell lines; then, the release of TGFα was used to characterize the extent to which the Gαq protein was activated. […], causing the release of TGF-α with alkaline phosphatase even when there is no signal from Gαq. Therefore, TPA was added to cells as a positive control.

Assay [6] relates to human acetylcholine receptor M3R subtype. The assay can be described thus: GRAB-ACh 1.0 in cultured rat cortical neurons, perfusion. The class given is cell-based. How it is done:
Newborn Sprague-Dawley rats were used for the primary culture of rat neurons. After the skin of rat was cleaned with alcohol, the head was dissected with surgical instruments, the brain was removed out and the vascular membrane on the surface of the cortex was carefully removed. The cortical tissue was cut into pieces and placed in a 0.25% trypsin solution, and digested for 10 minutes in an incubator at 37° C. After the digestion, the digestion was terminated with DMEM medium containing 5% FBS, and the cells were further isolated by slowly pipetting up and down ten times with a pipette. After standing for 5 minutes, the pellet containing the tissue debris was discarded and the upper layer solution was collected and centrifuged at 1,000 rpm for 5 minutes in a centrifuge. Thereafter, the supernatant was discarded and the neurons were resuspended with the Neurobasal+B27 medium which was used for culturing the neurons. The cell density was calculated using a cell counting chamber. After that, the cells were diluted at a density of 0.5-1×10^6 cells/ml and plated on the slides coated with poly-lysine (purchased from Sigma). […]
The optical response of neurons expressing the neurotransmitter sensor was observed by perfusion with a neurotransmitter solution. The neurotransmitter-specific optical signals were recorded, which were fast and stable, and have good repeatability in different neurons. […]

Assay [7] has as its target GRAB-Oxt-Cter580 sensor (human). The assay is described as follows: cell-based or functional assay.

Entries after “also recorded” stand apart in the source; their conditions may differ.

Sequence of GRAB-Oxt-Cter580 sensor (human) (chain, as listed by the source limits assumed): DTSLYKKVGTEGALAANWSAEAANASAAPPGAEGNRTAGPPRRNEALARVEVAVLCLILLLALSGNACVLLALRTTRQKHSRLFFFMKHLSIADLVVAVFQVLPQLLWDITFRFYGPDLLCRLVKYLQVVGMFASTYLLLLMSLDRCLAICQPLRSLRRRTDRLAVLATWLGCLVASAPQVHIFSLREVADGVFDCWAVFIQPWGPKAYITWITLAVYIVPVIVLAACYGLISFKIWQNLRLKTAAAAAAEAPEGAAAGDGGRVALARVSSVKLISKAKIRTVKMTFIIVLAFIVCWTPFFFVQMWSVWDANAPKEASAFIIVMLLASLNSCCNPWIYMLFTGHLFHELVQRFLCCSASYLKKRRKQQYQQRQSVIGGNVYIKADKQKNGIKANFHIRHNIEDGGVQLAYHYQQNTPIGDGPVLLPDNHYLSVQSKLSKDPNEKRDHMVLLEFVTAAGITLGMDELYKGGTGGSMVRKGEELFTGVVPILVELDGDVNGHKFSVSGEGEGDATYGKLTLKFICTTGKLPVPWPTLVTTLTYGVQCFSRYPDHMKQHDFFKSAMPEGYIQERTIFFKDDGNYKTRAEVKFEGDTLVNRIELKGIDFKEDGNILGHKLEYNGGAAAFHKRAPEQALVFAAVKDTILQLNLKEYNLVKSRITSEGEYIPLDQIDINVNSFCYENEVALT

Take `O=C(CCCN1CCC(O)(c2ccc(Cl)cc2)CC1)c1ccc(F)cc1` [Haloperidol]: the “activation or block of GRAB-GDA3.0” value in the assay on human DRD2 receptor is reported as “blocked; also recorded: inhibited”. Besides, the “effect on odor (IA)-stimulated GDA signal in MB β' lobe” value in assay [1] (listed as halo) is recorded as “can be blocked”; in assay [1] (listed as haloperidol), “completely blocked”.

On to `Cc1ccc(OCC(O)C(C)NC(C)C)c2c1CCC2` (stereo not shown) [ICI], for which, in assay [2], the “effect of blocking agent on agonist (ISO)-induced fluorescence increase” value was “specifically blocked”.

`C[N+](C)(C)CC#CCN1CCCC1=O` [Oxo-M]: the “fluorescence response to agonist” value in assay [3] is recorded as “respond to; also recorded: obvious fluorescence enhancement”.

Consider `C[N+]1(C)[C@@H]2C[C@@H](OC(=O)C(O)(c3cccs3)c3cccs3)C[C@H]1[C@@H]1O[C@@H]12` [Tio, Tiotropium bromide], for which the “effect of blocking agent on ligand (Ach)-induced fluorescence increase” value in assay [4] is reported as “specifically blocked”. Further, the “effect of antagonist on downstream signal induced by M3R” value in assay [5] (ACh) is listed as “completely block”. Also, the “effect of receptor blocker on response to acetylcholine” value in assay [6] is given as “can block”.

In the assay with human DRD2 receptor (saturated concentration of dopamine, HEK293T cells), “GRAB-GDA3.0: human DRD2 receptor, positions 254 to 360 truncated, cpEGFP inserted, linkers GG-GGAAA, SEQ ID NO: 26” had a signal change of 110%. Further, the “decay τ of odor-induced GDA signal” value is recorded as 1.85 s in assay [1] (DAT-RNAi Drosophila) and 0.48 s in assay [1] (WT Drosophila).

The molecule “Oxytocin (from UniProt P01178 20-28) (peptide)” registered a change in fluorescence signal (ΔF/F0) of the sensor on perfusion with the agonist (% ΔF/F0 at 1 µM Oxytocin) in assay [7] of 10.

Consider “WT-M3R: natural M3 type acetylcholine receptor without cpEGFP insertion”, for which, in assay [5] (gradient concentrations of ACh), the “activation of Gαq-mediated signal transduction pathway” value is recorded as “activated the Gαq-mediated signal transduction pathway”.
